Tested on: metastatic melanoma
Experiment: Clinical course of patient ZH311 after NY-ESO-1 vaccination and Ipilimumab
Assay type: in vivo
Source text: A patient ZH311 was diagnosed in 2001 with metastatic melanoma. The tumor expressed NY-ESO-1 and was serum-positive for NY-ESO-1.
Survival time after treatment with Ipilimumab was 3 years.

In the case of “Ipilimumab: anti-CTLA4 antagonistic antibody”, the “survival time after treatment with Ipilimumab” value (patient ZH311) is reported as 3 years, the course of disease (patient ZH311, Ipilimumab starting in 2007 after NY-ESO-1 vaccination) is reported as “stabilized course of disease” and the overall survival time (patient ZH311, since diagnosis 2001, NY-ESO-1 vaccination then Ipilimumab, peer group median 10 months) is reported as 10 years.

— patent publication US20180353603A1, “Combination therapy including tumor associated antigen binding antibodies” (CT Atlantic Ltd., priority 2011, published 2018)
